Laboratory results: PubChem BioAssay AID248 (DTP/NCI, 2004)
Toxic doses and inconclusive results are not listed. Cut-off read from the data, not from the text of the source: active = T/C of 150% or more; inactive = T/C below 125%.

Test system: L1210 leukemia ip in BDF1 mice, survival T/C
Assay: NCI In Vivo Anticancer Drug Screen. Data for tumor model L1210 Leukemia (intraperitoneal) in B6D2F1 (BDF1) mice
Conditions: endpoint: mean survival time, higher = longer survival
In short: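 Read-out is survival time, reported as the treated-group measurement over the vehicle-control measurement.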

[1] = dose: 50.0 mg/kg/injection, schedule: Q01DX001 (ip), vehicle: carboxymethylcellulose (CMC)
[2] = dose: 100.0 mg/kg/injection, schedule: Q01DX001 (ip), vehicle: carboxymethylcellulose (CMC)
[3] = dose: 200.0 mg/kg/injection, schedule: Q01DX001 (ip), vehicle: carboxymethylcellulose (CMC)
[4] = dose: 400.0 mg/kg/injection, schedule: Q01DX001 (ip), vehicle: carboxymethylcellulose (CMC)
[5] = dose: 100.0 mg/kg/injection, schedule: Q01DX009 (ip), vehicle: Klucel (hydroxypropylcellulose) (HPC)
[6] = dose: 100.0 mg/kg/injection, schedule: Q04DX003 (ip), vehicle: Klucel (hydroxypropylcellulose) (HPC)
[7] = dose: 200.0 mg/kg/injection, schedule: Q01DX009 (ip), vehicle: Klucel (hydroxypropylcellulose) (HPC)
[8] = dose: 200.0 mg/kg/injection, schedule: Q04DX003 (ip), vehicle: Klucel (hydroxypropylcellulose) (HPC)
[9] = dose: 400.0 mg/kg/injection, schedule: Q01DX009 (ip), vehicle: Klucel (hydroxypropylcellulose) (HPC)
[10] = dose: 400.0 mg/kg/injection, schedule: Q04DX003 (ip), vehicle: Klucel (hydroxypropylcellulose) (HPC)
[11] = dose: 100.0 mg/kg/injection, schedule: Q04DX003 (ip), vehicle: saline with Tween-80
[12] = dose: 200.0 mg/kg/injection, schedule: Q04DX003 (ip), vehicle: saline with Tween-80
[13] = dose: 400.0 mg/kg/injection, schedule: Q04DX003 (ip), vehicle: saline with Tween-80
[14] = dose: 50.0 mg/kg/injection, schedule: Q01DX009 (ip), vehicle: saline with Tween-80
[15] = dose: 100.0 mg/kg/injection, schedule: Q01DX009 (ip), vehicle: saline with Tween-80
[16] = dose: 100.0 mg/kg/injection, schedule: Q01DX001 (ip), vehicle: saline
[17] = dose: 200.0 mg/kg/injection, schedule: Q01DX001 (ip), vehicle: saline

Measured: T/C

NC(=S)N/N=C1\CCCC\C1=N/NC(N)=S
inactive: [1] 101 % of control | [2] 109 % of control | [3] 101 % of control | [4] 104 % of control

O=C1OCC2C1C1CCC2C1(Cl)Cl (configuration not stated)
inactive: dose: 75.0 mg/kg/injection, schedule: Q01DX001 (ip), vehicle: other 98 % of control

COc1ccccc1NC(=O)Oc1c(C(C)C)cccc1C(C)C
inactive: [5] 94 % of control | [6] 95 % of control | [7] 97 % of control | [8] 102 % of control | [9] 106 % of control | [10] 94 % of control

O=[N+]([O-])c1ccc(Oc2ccc(Cl)cc2Cl)c([N+](=O)[O-])c1
inactive: dose: 100.0 mg/kg/injection, schedule: Q01DX001 (ip), vehicle: saline with Tween-80 103 % of control | [11] 105 % of control | dose: 200.0 mg/kg/injection, schedule: Q01DX001 (ip), vehicle: saline with Tween-80 94 % of control | [12] 102 % of control | dose: 222.0 mg/kg/injection, schedule: Q01DX Z (ip), vehicle: methylcellulose (MC) 100 % of control | dose: 333.0 mg/kg/injection, schedule: Q01DX Z (ip), vehicle: methylcellulose (MC) 92 % of control | dose: 400.0 mg/kg/injection, schedule: Q01DX001 (ip), vehicle: saline with Tween-80 97 % of control | [13] 99 % of control | dose: 500.0 mg/kg/injection, schedule: Q01DX Z (ip), vehicle: methylcellulose (MC) 95 % of control

Fc1c(F)c(F)c(-c2ccccc2)c(F)c1F
inactive: dose: 25.6 mg/kg/injection, schedule: Q04DX002 (ip), vehicle: saline with Tween-80 92 % of control | dose: 64.0 mg/kg/injection, schedule: Q04DX002 (ip), vehicle: saline with Tween-80 95 % of control | dose: 160.0 mg/kg/injection, schedule: Q04DX002 (ip), vehicle: saline with Tween-80 95 % of control | dose: 400.0 mg/kg/injection, schedule: Q04DX002 (ip), vehicle: saline with Tween-80 95 % of control

C=CCOc1ccccc1C(C)=O
inactive: [11] 97 % of control | [12] 97 % of control | [13] 89 % of control

Cc1[nH]c2ccccc2c1C(c1ccccc1O)c1c(C)[nH]c2ccccc12
inactive: [5] 97 % of control | [7] 103 % of control | [9] 101 % of control

OC1c2ccccc2C(O)C2C3C=CC(CC3)C12 (configuration not stated)
inactive: [1] 93 % of control | [2] 98 % of control | [3] 98 % of control | [4] 98 % of control

Cc1cc(NC(=O)NC/C=C/Br)c2ccccc2n1
inactive: dose: 100.0 mg/kg/injection, schedule: Q01DX001 (ip), vehicle: Klucel (hydroxypropylcellulose) (HPC) 97 % of control | [6] 98 % of control | dose: 200.0 mg/kg/injection, schedule: Q01DX001 (ip), vehicle: Klucel (hydroxypropylcellulose) (HPC) 108 % of control | [8] 93 % of control | dose: 400.0 mg/kg/injection, schedule: Q01DX001 (ip), vehicle: Klucel (hydroxypropylcellulose) (HPC) 97 % of control | [10] 101 % of control

CCCCCCC#CC(=O)OCC
inactive: dose: 100.0 mg/kg/injection, schedule: Q04DX002 (ip), vehicle: saline 89 % of control | dose: 200.0 mg/kg/injection, schedule: Q04DX002 (ip), vehicle: saline 104 % of control

CCCCCCCCCCCCCCCCSC1CC(=O)N(c2ccc3c(c2)Cc2ccccc2-3)C1=O (configuration not stated)
inactive: [6] 96 % of control | [8] 96 % of control | [10] 100 % of control

S=C(NCc1ccccc1)C(=S)NCc1ccccc1
inactive: [6] 105 % of control | [8] 98 % of control

O=C(N/N=C/c1ccc(Cl)cc1)C(c1ccccc1)N1CCCCC1 (configuration not stated)
inactive: dose: 100.0 mg/kg/injection, schedule: Q01DX001 (ip), vehicle: other 96 % of control | dose: 200.0 mg/kg/injection, schedule: Q01DX001 (ip), vehicle: other 87 % of control | dose: 400.0 mg/kg/injection, schedule: Q01DX001 (ip), vehicle: other 93 % of control

CC(C)(C)CC(C)(C)c1ccc(OCCOc2ccccc2NS(=O)(=O)c2ccc(N)cc2)cc1
inactive: dose: 50.0 mg/kg/injection, schedule: Q01DX009 (ip), vehicle: saline 94 % of control | dose: 100.0 mg/kg/injection, schedule: Q01DX009 (ip), vehicle: saline 91 % of control | dose: 200.0 mg/kg/injection, schedule: Q01DX009 (ip), vehicle: saline 91 % of control

CCCCN(C(=O)C(F)(F)F)C(C)(C)C(SSSC(c1ccc(Cl)cc1)C(C)(C)N(CCCC)C(=O)C(F)(F)F)c1ccc(Cl)cc1 (configuration not stated)
inactive: dose: 100.0 mg/kg/injection, schedule: Q01DX009 (ip), vehicle: saline sonified 103 % of control | dose: 100.0 mg/kg/injection, schedule: Q04DX003 (ip), vehicle: saline sonified 96 % of control | dose: 200.0 mg/kg/injection, schedule: Q01DX009 (ip), vehicle: saline sonified 100 % of control | dose: 200.0 mg/kg/injection, schedule: Q04DX003 (ip), vehicle: saline sonified 94 % of control | dose: 400.0 mg/kg/injection, schedule: Q01DX009 (ip), vehicle: saline sonified 96 % of control | dose: 400.0 mg/kg/injection, schedule: Q04DX003 (ip), vehicle: saline sonified 97 % of control

CCN(CC)CCOC(=O)N1c2ccccc2Sc2ccccc21
inactive: dose: 25.0 mg/kg/injection, schedule: Q01DX009 (ip), vehicle: saline with Tween-80 100 % of control | dose: 50.0 mg/kg/injection, schedule: Q01DX009 (ip), vehicle: Klucel (hydroxypropylcellulose) (HPC) 102 % of control | [14] 103 % of control | [5] 102 % of control | [15] 103 % of control | [6] 98 % of control | [11] 93 % of control | [8] 93 % of control

CC(=O)OCC1C(C)CCC1C(C)(C)OC(C)=O (configuration not stated)
inactive: dose: 25.0 mg/kg/injection, schedule: Q04DX003 (ip), vehicle: saline 95 % of control | dose: 50.0 mg/kg/injection, schedule: Q04DX003 (ip), vehicle: saline 109 % of control | [16] 107 % of control | dose: 100.0 mg/kg/injection, schedule: Q04DX003 (ip), vehicle: saline 98 % of control

Cn1c(/C=C/c2ccccc2)c([N+](=O)[O-])c(=O)n(C)c1=O
inactive: [14] 106 % of control | [15] 98 % of control | dose: 200.0 mg/kg/injection, schedule: Q01DX009 (ip), vehicle: saline with Tween-80 98 % of control

Cc1ccc(N=C2CCCCC2Nc2ccc(C)cc2)cc1.[Cl][Zn][Cl] (configuration not stated)
inactive: [16] 98 % of control | [17] 101 % of control | dose: 400.0 mg/kg/injection, schedule: Q01DX001 (ip), vehicle: saline 104 % of control

CCN(CC)CCNC(=O)c1cc(N2CCOCC2)ccn1
inactive: [16] 108 % of control | [17] 102 % of control

O=C1CC2C=CCC12 (configuration not stated)
inactive: [11] 95 % of control | [12] 93 % of control | [13] 93 % of control
